System: Hyperimmune antiserum
Experiment: Anti-allergic test in sensitized rats: percent inhibition of skin dye leakage (blue spot) for hyperimmune antiserum
Format: in vivo, Sprague-Dawley JCL strain rats
Details: p.o.
Experimental: Five male Sprague-Dawley JCL strain rates weighing 290-310g. were used for each dose. The animals were sensitized by intracutaneous injection of 0.1ml. of 5 times diluted reagin-like rat antiserum at 48 hours before egg albumin at their depilated backs and were injected 0.1ml. of 4 times diluted hyperimmune rat antiserum at 4 hours before. One ml. of mixture of egg albumin 5 mg. and Evans blue 5 mg. was injected intravenously. Immediately before 0.1ml. of 0.2% histamine solution was injected intracutaneously.
One hour after the injection of the antigen and dye, animals were sacrificed and the skin of the back was removed. The dye of blue spot was then extracted from the skin. The blue spot areas of the skin were punched out and were cut with clipper into small pieces. The small pieces per one blue spot were blended with 10 ml. of a 4:1 mixture of acetone and 2% solution of RBS-25 (Marumoto industrial Co., Ltd.) and rested for 16 hours. Five and 16 hours after, it was shaked for 30 minutes respectively. After centrifugation at 2000 rpm for 15 minutes, the optical density of the supernatant was determined at 620 mμ.
[…] The mean amount of dye of the test animals was compared with that of the control animals. The percent inhibition for each dose was calculated.

With `CN1CCN(C(=O)c2cc(=O)c3c(OCCOc4ccccc4)cccc3o2)CC1` the “inhibition % for Hyperimmune antiserum” value (pretreatment 30 min., dose 125 mg./kg.) was 48.2%, the “inhibition % for Hyperimmune antiserum” value (pretreatment 30 min., dose 250 mg./kg.) was 66.7% and the “inhibition % for Hyperimmune antiserum” value (pretreatment 60 min., dose 250 mg./kg.) was 45.8%. The “inhibition % for Hyperimmune antiserum” value (pretreatment 60 min., dose 500 mg./kg.) was 46.5%, the “inhibition % for Hyperimmune antiserum” value (pretreatment 120 min., dose 125 mg./kg.) was 37.6% and the “inhibition % for Hyperimmune antiserum” value (pretreatment 120 min., dose 250 mg./kg.) was 40.6%. For the same compound, the “inhibition % for Hyperimmune antiserum” value (pretreatment 120 min., dose 500 mg./kg.) was 67.7%.
